Measurements reported in DBAASP.
In brackets after ≈: the same amount, converted by molar mass.

Experiments:
Assay in all cases: ≥ marks a high value that may be exact or a test limit, other limits are often not marked, values filed in µg/mL are converted to µM
[1] = system: Candida albicans ATCC 90029
[2] = system: Staphylococcus aureus ATCC 29213
Pseudomonas aeruginosa = system: Pseudomonas aeruginosa
Candida albicans = system: Candida albicans
[3] = system: Escherichia coli ATCC 25922
Escherichia coli = system: Escherichia coli
Staphylococcus aureus = system: Staphylococcus aureus
Escherichia coli JW0013 = system: Escherichia coli JW0013
Escherichia coli BW25113 = system: Escherichia coli BW25113
Escherichia coli JJ2489 = system: Escherichia coli JJ2489
[4] = system: Escherichia coli JW0368 ΔsbmA
[5] = system: Salmonella typhimurium SL1344
[6] = system: Escherichia coli JW2778 ΔygdD
Escherichia coli J2210 = system: Escherichia coli J2210
Escherichia coli MC1041 = system: Escherichia coli MC1041
[7] = system: Salmonella enterica subsp. enterica serovar Enteritidis MH91989
Escherichia coli K88 = system: Escherichia coli K88
[8] = system: Salmonella enterica subsp. enterica serovar Typhimurium ATCC 14028
[9] = system: Pseudomonas aeruginosa ATCC 27853
[10] = system: Staphylococcus epidermidis ATCC 12228
Escherichia coli UB1005 = system: Escherichia coli UB1005
[11] = system: Escherichia coli CVCC 1515
[12] = system: Mycobacterium tuberculosis CAS3
[13] = system: Mycobacterium tuberculosis H37Rv
[14] = system: Mycobacterium tuberculosis WXY
[15] = system: Pseudomonas aeruginosa H103
[16] = system: Staphylococcus aureus SAP 0017
[17] = system: Salmonella typhimurium C610
[18] = system: Staphylococcus epidermidis
Enterococcus faecalis = system: Enterococcus faecalis
[19] = system: Staphylococcus aureus K147
Bacillus subtilis = system: Bacillus subtilis
Escherichia coli O111:B4 = system: Escherichia coli O111:B4
[20] = system: Salmonella enterica ATCC H9812
[21] = system: Enterococcus faecalis 1F-1
[22] = system: Enterococcus faecium 5F-10
[23] = system: Bacillus licheniformis ATCC 14580
[24] = system: Bacillus cereus ATCC 14579
[25] = system: Pseudomonas aeruginosa PAO1
[26] = system: Proteus mirabilis ATCC 35659
[27] = system: Bacillus subtilis ATCC 6051
[28] = system: Bacillus amyloliquefaciens ATCC 23842
[29] = system: Candida glabrata ATCC 2001
[30] = system: Candida albicans ATCC 10231
[31] = system: Staphylococcus aureus MU50
Bacillus subtilis 168 = system: Bacillus subtilis 168
[32] = system: Klebsiella pneumoniae ATCC 13883
[33] = system: Staphylococcus epidermidis 1457
[34] = system: Staphylococcus aureus Newman
[35] = system: Candida tropicalis ATCC 13803
[36] = system: Staphylococcus aureus UAMS-1
[37] = system: Staphylococcus aureus USA 400
[38] = system: Staphylococcus aureus USA 200

## CC(C)C[C@H](NC(=O)[C@H](Cc1cnc[nH]1)NC(=O)[C@H](CO)NC(=O)[C@H](C)NC(=O)[C@H](CC(C)C)NC(=O)[C@@H](NC(=O)[C@@H](NC(=O)[C@H](CC(C)C)NC(=O)[C@H](CC(C)C)NC(=O)[C@H](CO)NC(=O)[C@H](Cc1cnc[nH]1)NC(=O)[C@H](CO)NC(=O)[C@H](CC(C)C)NC(=O)[C@H](CC(C)C)NC(=O)[C@H](CCCCN)NC(=O)[C@H](Cc1ccccc1)NC(=O)[C@H](CCCN=C(N)N)NC(=O)[C@@H](N)CCCN=C(N)N)C(C)C)[C@@H](C)O)C(=O)O [RRFKLLSHSLLVTLASHL]
[1]
  MIC: 5.98 µM (≈ 12.5 µg/mL)
[2]
  MIC: 2.99 µM (≈ 6.25 µg/mL)
Pseudomonas aeruginosa
  MIC: 2.99 µM (≈ 6.25 µg/mL)
Candida albicans
  MIC: 2.99 µM (≈ 6.25 µg/mL)
[3]
  MIC: 1.49 µM (≈ 3.12 µg/mL)
Escherichia coli
  MIC: 1.49 µM (≈ 3.12 µg/mL)
Staphylococcus aureus
  MIC: 1.49 µM (≈ 3.12 µg/mL)

## CC(C)C[C@H](NC(=O)[C@H](CCCN=C(N)N)NC(=O)[C@@H]1CCCN1C(=O)[C@H](CCCN=C(N)N)NC(=O)[C@@H]1CCCN1C(=O)[C@@H]1CCCN1C(=O)[C@H](CCCN=C(N)N)NC(=O)[C@@H]1CCCN1C(=O)[C@H](CCC(N)=O)NC(=O)[C@@H]1CCCN1C(=O)[C@H](CCCN=C(N)N)NC(=O)[C@H](Cc1ccc(O)cc1)NC(=O)[C@@H](NC(=O)[C@@H]1CCCN1C(=O)[C@H](CCCN=C(N)N)NC(=O)[C@H](CC(N)=O)NC(=O)[C@H](CC(N)=O)NC(=O)CN)C(C)C)C(=O)O [GNNRPVYRPQPRPPRPRL]
Escherichia coli JW0013
  MIC: 0.048 µM (≈ 0.104 µg/mL)
Escherichia coli BW25113
  MIC: 0.062 µM (≈ 0.135 µg/mL)
Escherichia coli JJ2489
  MIC: 0.126 µM (≈ 0.273 µg/mL)
[4]
  MIC: 0.096 µM (≈ 0.208 µg/mL)
[5]
  MIC: 0.126 µM (≈ 0.273 µg/mL)
[6]
  MIC: 0.126 µM (≈ 0.273 µg/mL)
Escherichia coli J2210
  MIC: 0.126 µM (≈ 0.273 µg/mL)
Escherichia coli MC1041
  MIC: 0.096 µM (≈ 0.208 µg/mL)
[7]
  MIC: 0.067 µM (≈ 0.145 µg/mL)

## CC(C)C[C@H](NC(=O)[C@H](CC(C)C)NC(=O)[C@H](CCCCN)NC(=O)[C@H](C)NC(=O)[C@H](C)NC(=O)[C@H](C)NC(=O)[C@H](CCCCN)NC(=O)[C@H](C)NC(=O)[C@H](C)NC(=O)[C@H](C)NC(=O)[C@H](CCCCN)NC(=O)[C@H](Cc1c[nH]c2ccccc12)NC(=O)[C@@H](N)CC(C)C)C(N)=O [LWKAAAKAAAKLL]
[2]
  MIC: 4 µM (≈ 5.41 µg/mL)
Escherichia coli K88
  MIC: 4 µM (≈ 5.41 µg/mL)
[8]
  MIC: 32 µM (≈ 43.3 µg/mL)
[9]
  MIC: 4 µM (≈ 5.41 µg/mL)
[10]
  MIC: 4 µM (≈ 5.41 µg/mL)
Escherichia coli UB1005
  MIC: 8 µM (≈ 10.8 µg/mL)
[3]
  MIC: 1 µM (≈ 1.35 µg/mL)
[11]
  MIC: 8 µM (≈ 10.8 µg/mL)

## CC(C)C[C@H](NC(=O)[C@H](C)NC(=O)[C@H](C)NC(=O)[C@H](CCCN=C(N)N)NC(=O)[C@H](CO)NC(=O)[C@H](CC(C)C)NC(=O)[C@H](CCCCN)NC(=O)[C@H](CCCCN)NC(=O)[C@H](CCCCN)NC(=O)[C@H](C)N)C(=O)N[C@@H](CCCN=C(N)N)C(=O)N[C@@H](C)C(=O)N[C@@H](C)C(=O)N[C@H](C(=O)N[C@@H](CCCCN)C(=O)O)C(C)C [AKKKLSRAALRAAVK]
[12]
  MIC: ≥ 93.1 µM
[13]
  MIC: ≥ 93.1 µM
[14]
  MIC: ≥ 93.1 µM

## CC(C)C[C@H](NC(=O)[C@H](CCCCN)NC(=O)[C@H](CCCCN)NC(=O)[C@H](Cc1ccccc1)NC(=O)[C@H](Cc1ccccc1)NC(=O)[C@H](CO)NC(=O)[C@H](CCCCN)NC(=O)[C@@H](N)CCCCN)C(=O)N[C@H](C(=O)N[C@@H](CO)C(=O)N[C@H](C(=O)N[C@@H](C)C(=O)N[C@@H](CO)C(=O)N[C@@H](CO)C(=O)N[C@H](C(=O)N[C@@H](CC(C)C)C(=O)N[C@@H](CO)C(=O)O)C(C)C)C(C)C)[C@@H](C)O [KKSFFKKLTSVASSVLS]
[15]
  MIC: ≥ 68.9 µM
[16]
  MIC: ≥ 68.9 µM
[17]
  MIC: ≥ 68.9 µM
[18]
  MIC: ≥ 68.9 µM
Enterococcus faecalis
  MIC: ≥ 68.9 µM
[19]
  MIC: ≥ 68.9 µM
Bacillus subtilis
  MIC: ≥ 68.9 µM
Escherichia coli O111:B4
  MIC: ≥ 68.9 µM

## CC(C)C[C@H](NC(=O)[C@@H](N)CC(C)C)C(=O)N[C@@H](CO)C(=O)N[C@@H](CCCN=C(N)N)C(=O)N[C@H](C(=O)N[C@@H](CC(=O)O)C(=O)N[C@@H](CCC(=O)O)C(=O)O)C(C)C [LLSRVDE]
[2]
  MIC: > 154 µM
[20]
  MIC: ≥ 154 µM
[21]
  MIC: ≥ 154 µM
[22]
  MIC: ≥ 154 µM
[23]
  MIC: ≥ 154 µM
[24]
  MIC: ≥ 154 µM
[25]
  MIC: > 154 µM
[3]
  MIC: > 154 µM
[26]
  MIC: ≥ 154 µM
[27]
  MIC: ≥ 154 µM
[28]
  MIC: ≥ 154 µM

## CC[C@H](C)[C@H](NC(=O)[C@H](CCCCN)NC(=O)CNC(=O)[C@H](CC(C)C)NC(=O)[C@@H](NC(=O)[C@H](CO)NC(=O)[C@H](CCCCN)NC(=O)[C@H](CC(C)C)NC(=O)[C@H](Cc1ccccc1)NC(=O)[C@@H]1CCCN1C(=O)[C@H](CC(C)C)NC(=O)[C@@H](N)Cc1ccccc1)[C@@H](C)CC)C(=O)N[C@@H](CC(C)C)C(N)=O [FLPFLKSILGKIL]
[29]
  MIC: 12.5 µM (≈ 18.6 µg/mL)
[30]
  MIC: 12.5 µM (≈ 18.6 µg/mL)
[31]
  MIC: 3.1 µM (≈ 4.61 µg/mL)
Bacillus subtilis 168
  MIC: 17.7 µM (≈ 26.3 µg/mL)
[25]
  MIC: > 50 µM
[32]
  MIC: ≥ 50 µM
[33]
  MIC: 1.6 µM (≈ 2.38 µg/mL)
[3]
  MIC: > 50 µM
[34]
  MIC: 1.6 µM (≈ 2.38 µg/mL)
[35]
  MIC: 1.6 µM (≈ 2.38 µg/mL)
[36]
  MIC: 25 µM (≈ 37.2 µg/mL)
[37]
  MIC: 1.56 µM (≈ 2.32 µg/mL)
[38]
  MIC: 3.1 µM (≈ 4.61 µg/mL)
